Test results taken from article PMC9774391 (ACS Omega, 2022).

Tests used:
AChE = AChE (Homo sapiens, UniProt P22303); test: biochemical; settings: for inhibition at 1000 µM: 10^–3 M; for inhibition at 100 µM: 10^–4 M; for inhibition at 10 µM: 10^–5 M; for inhibition at 1 µM: 10^–6 M; for inhibition at 0.1 µM: 10^–7 M; for inhibition at 0.01 µM: 10^–8 M; for inhibition at 0.001 µM: 10^–9 M
Experimental: (§1) According to the modified Ellman approach outlined in our team’s earlier work, the AChE and BChE inhibitory activities of the obtained compounds were evaluated.[18]−[21]

BChE [1] = biological target: T1, BChE (Homo sapiens, UniProt P06276); test: biochemical; settings: for inhibition at 1000 µM: 10^–3 M; for inhibition at 100 µM: 10^–4 M; for inhibition at 10 µM: 10^–5 M; for inhibition at 1 µM: 10^–6 M; for inhibition at 0.1 µM: 10^–7 M; for inhibition at 0.01 µM: 10^–8 M; for inhibition at 0.001 µM: 10^–9 M
T1 sequence (P06276 29-602): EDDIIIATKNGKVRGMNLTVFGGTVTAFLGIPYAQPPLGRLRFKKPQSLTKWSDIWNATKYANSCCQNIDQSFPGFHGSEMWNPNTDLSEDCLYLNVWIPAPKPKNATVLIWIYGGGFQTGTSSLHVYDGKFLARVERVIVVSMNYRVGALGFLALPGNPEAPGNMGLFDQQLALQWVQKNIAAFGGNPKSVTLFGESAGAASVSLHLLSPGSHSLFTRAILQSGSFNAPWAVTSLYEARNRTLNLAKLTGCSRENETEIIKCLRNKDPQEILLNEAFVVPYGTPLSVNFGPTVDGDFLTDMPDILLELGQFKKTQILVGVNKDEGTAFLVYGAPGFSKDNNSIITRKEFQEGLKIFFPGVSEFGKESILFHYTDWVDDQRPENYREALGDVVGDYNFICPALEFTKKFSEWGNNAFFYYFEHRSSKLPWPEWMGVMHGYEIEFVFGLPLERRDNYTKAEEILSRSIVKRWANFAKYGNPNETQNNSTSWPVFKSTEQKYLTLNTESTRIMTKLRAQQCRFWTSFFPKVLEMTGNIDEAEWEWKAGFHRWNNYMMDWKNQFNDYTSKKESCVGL
Experimental: as §1

MAO-A = biological target: T2, MAO-A (Homo sapiens, UniProt P21397); test: In vitro MAO-A inhibition assay (fluorometric); type: biochemical; settings: for inhibition at 1000 µM: 10^–3 M; for inhibition at 100 µM: 10^–4 M
T2 sequence (P21397 1-527): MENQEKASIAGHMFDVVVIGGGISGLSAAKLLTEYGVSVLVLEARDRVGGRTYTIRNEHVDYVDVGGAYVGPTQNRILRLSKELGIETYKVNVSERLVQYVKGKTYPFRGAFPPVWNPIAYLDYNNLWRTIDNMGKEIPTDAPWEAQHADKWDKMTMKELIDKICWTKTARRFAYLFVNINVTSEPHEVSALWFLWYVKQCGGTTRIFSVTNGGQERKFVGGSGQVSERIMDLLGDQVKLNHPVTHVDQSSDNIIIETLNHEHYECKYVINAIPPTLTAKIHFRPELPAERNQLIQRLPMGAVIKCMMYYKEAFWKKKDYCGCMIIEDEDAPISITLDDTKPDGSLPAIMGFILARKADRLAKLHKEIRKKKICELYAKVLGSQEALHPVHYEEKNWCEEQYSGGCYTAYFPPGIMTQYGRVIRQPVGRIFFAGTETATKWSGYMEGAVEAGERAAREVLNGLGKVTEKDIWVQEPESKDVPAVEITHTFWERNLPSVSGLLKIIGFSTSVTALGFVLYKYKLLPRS

MAO-B = biological target: T3, MAO-B (Homo sapiens, UniProt P27338); test: In vitro MAO-B inhibition assay (fluorometric); type: biochemical; settings: for inhibition at 1000 µM: 10^–3 M; for inhibition at 100 µM: 10^–4 M
T3 sequence (P27338 1-520): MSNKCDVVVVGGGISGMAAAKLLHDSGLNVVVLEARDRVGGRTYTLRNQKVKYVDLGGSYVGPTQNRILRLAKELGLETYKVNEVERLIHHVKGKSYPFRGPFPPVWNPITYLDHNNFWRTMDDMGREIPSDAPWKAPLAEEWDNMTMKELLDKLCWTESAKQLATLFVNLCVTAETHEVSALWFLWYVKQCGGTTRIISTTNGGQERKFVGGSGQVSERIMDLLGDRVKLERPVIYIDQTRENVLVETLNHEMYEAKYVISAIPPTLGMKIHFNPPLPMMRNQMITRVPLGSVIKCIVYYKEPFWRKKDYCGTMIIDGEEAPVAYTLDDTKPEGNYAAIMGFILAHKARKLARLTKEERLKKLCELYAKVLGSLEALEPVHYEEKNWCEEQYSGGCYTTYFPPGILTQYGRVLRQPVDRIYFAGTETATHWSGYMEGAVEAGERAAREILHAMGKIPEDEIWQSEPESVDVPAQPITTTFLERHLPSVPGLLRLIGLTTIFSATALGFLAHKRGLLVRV

BChE [2] = biological target: T1, BChE; test: Enzyme kinetics on BChE (Lineweaver–Burk); type: biochemical
Experimental: The experimental procedures used in the kinetic investigations were identical to those used in the inhibition experiments. […]. Acetylthiocholine iodide (ATC) and butyrylthiocholine iodide (BTC) solutions were utilized as the substrates for the ChE enzymes, with serial dilutions at six different concentrations (600, 300, 150, 75, 37.5, and 18.75 μM). The tyramine substrate solution (concentrations ranging from 20 to 0.625 μM) was produced for the MAO enzymes at six different concentrations. Separate measurements were conducted both with and without an inhibitor. Using the Microsoft Office Excel 2013 program, the resulting absorbance values were compared to various substrate concentrations, and Lineweaver–Burk plots were created.[19]−[22]
The absorbance data from the experiments and the substrate concentrations were used to generate Lineweaver–Burk plots. The graphic’s x-axis stands for 1/[S] […] […]. The intersection of these four lines on the diagram was used to define the type of substrate and inhibitor reaction against the enzyme.
Reversible and irreversible inhibition of enzymes are the two categories that inhibition is commonly subdivided into. In irreversible inhibition, the inhibitor either creates a recalcitrant complex structure or establishes a covalent bond with the enzyme. […]

Beta Amyloid 1–42 (Aβ42) = biological target: T4, Beta Amyloid 1–42 (Aβ42) (Homo sapiens, UniProt P05067); test: Beta Amyloid 1–42 (Aβ42) inhibitor screening assay; type: biochemical
T4 construct: The Beta Amyloid 1–42 (Aβ42) Ligand Screening Assay kit; purchased BioVision, Milpitas, CA
T4 sequence (P05067 672-713 limits assumed): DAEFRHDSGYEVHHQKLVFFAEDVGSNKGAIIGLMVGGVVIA
Description: The Beta Amyloid 1–42 (Aβ42) Ligand Screening Assay kit (BioVision, Milpitas, CA) technique based on the fluorometric approach served as the basis for the experimental process.[21],[28],[29]

Cytotoxicity test (MTT) = type: cell-based; settings: NIH/3T3 mouse embryonic fibroblast cells (ATCC CRL-1658), NIH/3T3 mouse fibroblast healthy cell line
Experimental: The NIH/3T3 cells were incubated according to the manufacturer’s recommendations. In 96-well plates, NIH/3T3 cells were seeded at a density of 1 × 10^4 cells per well. The MTT test was conducted in line with the previously mentioned standards.[19],[22],[23],[28],[30]

[3] = DPPH free-radical scavenging activity assay; settings: for IC50: serial dilution 10^–3–10^–9 M, read-out: IC50 on DPPH antioxidant activity
Experimental: This approach is based on evaluating the free-radical scavenging abilities of the stable 1,1-diphenyl-2-picrylhydrazyl (DPPH) radical. To create the DPHH solution, 9.86 mg of DPPH was weighed and diluted to 25 mL with methanol. The test wells were then filled with 100 μL of the DPPH solution and 100 μL of the test solutions. Only 200 μL of methanol was used for the blank reading, while the control reading required the usage of 100 μL each of methanol and the DPPH solution. Following incubation, a spectrophotometric measurement at 517 nm was carried out.[26],[27]

Chain of AChE (P22303 32-614): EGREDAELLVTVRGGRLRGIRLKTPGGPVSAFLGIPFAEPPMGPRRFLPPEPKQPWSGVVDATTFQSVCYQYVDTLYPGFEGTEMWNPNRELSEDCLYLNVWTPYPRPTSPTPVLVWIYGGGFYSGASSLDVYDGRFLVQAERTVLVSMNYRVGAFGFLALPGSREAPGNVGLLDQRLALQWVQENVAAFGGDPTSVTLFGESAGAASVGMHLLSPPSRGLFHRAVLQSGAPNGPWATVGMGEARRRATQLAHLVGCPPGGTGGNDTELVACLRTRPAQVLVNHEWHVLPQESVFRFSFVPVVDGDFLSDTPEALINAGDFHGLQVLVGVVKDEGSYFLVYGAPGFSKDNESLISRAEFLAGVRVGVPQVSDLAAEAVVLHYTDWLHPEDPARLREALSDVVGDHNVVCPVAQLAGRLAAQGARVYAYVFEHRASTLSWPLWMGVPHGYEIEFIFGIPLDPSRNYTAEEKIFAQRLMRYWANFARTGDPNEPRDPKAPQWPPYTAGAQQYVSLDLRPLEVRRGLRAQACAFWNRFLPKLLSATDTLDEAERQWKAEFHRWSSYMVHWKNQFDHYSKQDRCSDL

## COc1cc2c(cc1OC)C(=O)/C(=C/c1ccc(NC(=O)CN(C)CCCN(C)C)cc1)C2 [D39]
AChE
  IC50: 45.8 ± 0.9 nM
  inhibition at 1000 µM: 92.6 ± 1.62%
  inhibition at 100 µM: 88.7 ± 1.19%
  inhibition at 10 µM: 81.7 ± 1.16%
  inhibition at 1 µM: 73.3 ± 0.952%
  inhibition at 0.1 µM: 64.3 ± 0.687%
  inhibition at 0.01 µM: 40.2 ± 0.528%
  inhibition at 0.001 µM: 20.5 ± 0.492%
BChE [1]
  IC50: 75 ± 3.2 nM
  inhibition at 1000 µM: 92.8 ± 1.36%
  inhibition at 100 µM: 87.3 ± 1.25%
  inhibition at 10 µM: 81.4 ± 1.33%
  inhibition at 1 µM: 73.7 ± 1.15%
  inhibition at 0.1 µM: 55.4 ± 0.678%
  inhibition at 0.01 µM: 34.7 ± 0.511%
  inhibition at 0.001 µM: 21.6 ± 0.485%
MAO-A
  inhibition at 1000 µM: 89.8 ± 1.44%
  inhibition at 100 µM: 36.2 ± 0.756%
MAO-B
  IC50: 39.3 ± 1.1 nM
  inhibition at 1000 µM: 95.3 ± 1.06%
  inhibition at 100 µM: 87.2 ± 1.82%
MAO-B; 10^–5 M
  inhibition at 10 µM: 84.8 ± 1.64%
MAO-B; 10^–6 M
  inhibition at 1 µM: 78.6 ± 1.25%
MAO-B; 10^–7 M
  inhibition at 0.1 µM: 60.2 ± 0.956%
MAO-B; 10^–8 M
  inhibition at 0.01 µM: 36.2 ± 0.488%
MAO-B; 10^–9 M
  inhibition at 0.001 µM: 25.6 ± 0.359%
BChE [2]; Lineweaver–Burk plots
  type of inhibition of BChE: mixed inhibition
BChE [2]; secondary plot of Lineweaver–Burk data, read-out: steady-state inhibition constant (Ki), BChE
  Ki: 61.7 nM
Beta Amyloid 1–42 (Aβ42); 10^–3 M, read-out: % β-amyloid plaque inhibition
  inhibition at 1000 µM: ≥ 80%
Beta Amyloid 1–42 (Aβ42); 10^–4 M, read-out: % β-amyloid plaque inhibition
  inhibition at 100 µM: 69.8 ± 0.778%
Beta Amyloid 1–42 (Aβ42); read-out: IC50 on β-amyloid plaque aggregation
  IC50: 197 ± 7.9 nM
Cytotoxicity test (MTT)
  IC50: 12300 ± 416 nM

## COc1ccc2c(c1)C/C(=C\c1ccc(NC(=O)CN3CCN(CCCO)CC3)cc1)C2=O [D19]
AChE
  IC50: 32.4 ± 1.2 nM
  inhibition at 1000 µM: 95.2 ± 1.65%
  inhibition at 100 µM: 92.7 ± 1.25%
  inhibition at 10 µM: 89.2 ± 1.08%
  inhibition at 1 µM: 82.1 ± 0.988%
  inhibition at 0.1 µM: 70.7 ± 1.07%
  inhibition at 0.01 µM: 33.6 ± 0.624%
  inhibition at 0.001 µM: 20.6 ± 0.596%
BChE [1]
  inhibition at 1000 µM: 83.5 ± 1.37%
  inhibition at 100 µM: 32.5 ± 0.337%
MAO-A
  inhibition at 1000 µM: 60.9 ± 1.86%
  inhibition at 100 µM: 25.3 ± 0.632%
MAO-B
  inhibition at 1000 µM: 90.2 ± 1.46%
  inhibition at 100 µM: 43.2 ± 0.877%
[3]; concentration not stated in the sentence (Figure 6)
  % DPPH free-radical scavenging activity: ≥ 90%
[3]
  IC50: 362 ± 15 nM
Cytotoxicity test (MTT)
  IC50: 10500 ± 517 nM

## COc1ccc2c(c1)C(=O)/C(=C/c1ccc(NC(=O)CN(C)CCN(C)C)cc1)C2 [D35]
AChE
  IC50: 215 ± 8.8 nM
  inhibition at 1000 µM: 95.7 ± 1.2%
  inhibition at 100 µM: 91.7 ± 1.47%
  inhibition at 10 µM: 73.2 ± 1.12%
  inhibition at 1 µM: 61.8 ± 1.08%
  inhibition at 0.1 µM: 42.9 ± 0.628%
  inhibition at 0.01 µM: 33.6 ± 0.52%
  inhibition at 0.001 µM: 21.5 ± 0.448%
BChE [1]
  IC50: 151 ± 4.8 nM
  inhibition at 1000 µM: 90.2 ± 1.39%
  inhibition at 10 µM: 74.6 ± 1.13%
  inhibition at 1 µM: 65.9 ± 1.01%
  inhibition at 0.1 µM: 54.9 ± 0.974%
  inhibition at 0.01 µM: 33.4 ± 0.814%
  inhibition at 0.001 µM: 18 ± 0.411%
MAO-A
  inhibition at 1000 µM: 88.46 ± 0.758%
  inhibition at 100 µM: 21.7 ± 0.623%
MAO-B
  inhibition at 1000 µM: 90.7 ± 1.25%
  inhibition at 100 µM: 42.5 ± 0.547%
[3]
  IC50: 238 ± 11 nM
Cytotoxicity test (MTT)
  IC50: 53900 ± 1220 nM
